# Assay results taken from US9283222B2 (priority 2006, dated 2016).
# Biological target: Recombinant Human Poly(ADP-Ribose) Polymerase (PARP), PARP-1 (Homo sapiens (Human), UniProt P09874)
# Conditions: read-out: PARP-1 (Ki); Table 1; text calls the values EC50s
# Chain of Recombinant Human Poly(ADP-Ribose) Polymerase (PARP), PARP-1 (P09874 whole entry): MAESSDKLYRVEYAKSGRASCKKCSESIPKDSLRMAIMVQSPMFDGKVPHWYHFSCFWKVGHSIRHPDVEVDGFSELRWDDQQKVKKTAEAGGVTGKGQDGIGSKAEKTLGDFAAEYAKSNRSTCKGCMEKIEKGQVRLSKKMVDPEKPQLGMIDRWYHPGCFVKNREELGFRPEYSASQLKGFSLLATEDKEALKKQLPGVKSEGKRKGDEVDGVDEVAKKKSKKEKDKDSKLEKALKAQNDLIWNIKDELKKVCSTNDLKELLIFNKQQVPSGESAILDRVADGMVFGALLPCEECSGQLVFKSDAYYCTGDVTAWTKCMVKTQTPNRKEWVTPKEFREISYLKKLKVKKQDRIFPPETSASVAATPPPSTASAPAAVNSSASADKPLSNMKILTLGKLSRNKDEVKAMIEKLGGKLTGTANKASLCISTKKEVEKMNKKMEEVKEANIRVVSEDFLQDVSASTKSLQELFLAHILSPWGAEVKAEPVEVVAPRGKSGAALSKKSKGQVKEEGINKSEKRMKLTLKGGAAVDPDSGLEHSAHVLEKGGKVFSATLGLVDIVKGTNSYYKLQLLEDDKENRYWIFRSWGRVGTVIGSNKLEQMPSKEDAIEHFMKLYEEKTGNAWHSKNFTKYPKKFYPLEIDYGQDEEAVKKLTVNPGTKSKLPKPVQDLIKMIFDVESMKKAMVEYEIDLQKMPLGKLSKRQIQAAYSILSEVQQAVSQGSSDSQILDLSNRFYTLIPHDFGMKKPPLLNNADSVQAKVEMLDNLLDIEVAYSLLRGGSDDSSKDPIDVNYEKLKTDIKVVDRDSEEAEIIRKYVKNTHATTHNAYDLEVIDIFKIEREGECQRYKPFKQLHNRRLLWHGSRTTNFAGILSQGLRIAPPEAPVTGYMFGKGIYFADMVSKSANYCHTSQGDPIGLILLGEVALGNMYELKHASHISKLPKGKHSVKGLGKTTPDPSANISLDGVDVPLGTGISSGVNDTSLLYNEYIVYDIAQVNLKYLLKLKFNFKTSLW
row,SMILES,Ki [nM]
1,"O=C(c1ccc2ccccc2n1)N1CCCN(C(=O)c2cc(Cc3n[nH]c(=O)c4c3NCCC4)ccc2F)CC1 [Example 687, 8-(4-fluoro-3-{[4-(quinolin-2-ylcarbonyl)-1,4-diazepan-1-yl]carbonyl}benzyl)-2,3,4,6-tetrahydropyrido[2,3-d]pyridazin-5(1H)-one]",4.2
2,"O=C(c1cnc2ccccc2c1)N1CCCN(C(=O)c2cc(Cc3n[nH]c(=O)c4c3NCCC4)ccc2F)CC1 [Example 688, 8-(4-fluoro-3-{[4-(quinolin-3-ylcarbonyl)-1,4-diazepan-1-yl]carbonyl}benzyl)-2,3,4,6-tetrahydropyrido[2,3-d]pyridazin-5(1H)-one]",2.4
3,"CC(C)n1nnc2cc(C(=O)N3CCCN(C(=O)c4cc(Cc5n[nH]c(=O)c6c5NCCC6)ccc4F)CC3)ccc21 [Example 690, 8-[4-fluoro-3-({4-[(1-isopropyl-1H-1,2,3-benzotriazol-5-yl)carbonyl]-1,4-diazepan-1-yl}carbonyl)benzyl]-2,3,4,6-tetrahydropyrido[2,3-d]pyridazin-5(1H)-one]",2.4
4,"O=C(c1cnccn1)N1CCCN(C(=O)c2cc(Cc3n[nH]c(=O)c4c3NCCC4)ccc2F)CC1 [Example 693, 8-(4-fluoro-3-{[4-(pyrazin-2-ylcarbonyl)-1,4-diazepan-1-yl]carbonyl}benzyl)-2,3,4,6-tetrahydropyrido[2,3-d]pyridazin-5(1H)-one]",2
5,"O=C(c1cc(Cc2n[nH]c(=O)c3c2NCCC3)ccc1F)N1CCN(c2cncnc2)CC1 [Example 696, 8-{4-fluoro-3-[(4-pyrimidin-5-ylpiperazin-1-yl)carbonyl]benzyl}-2,3,4,6-tetrahydropyrido[2,3-d]pyridazin-5(1H)-one]",2.5
6,"CC(C)(C)OC(=O)N1CCC(NC(=O)c2cc(Cc3n[nH]c(=O)c4c3NCCC4)ccc2F)CC1 [Example 699, tert-butyl 4-({2-fluoro-5-[(5-oxo-1,2,3,4,5,6-hexahydropyrido[2,3-d]pyridazin-8-yl)methyl]benzoyl}amino)piperidine-1-carboxylate]",74
7,"CC(C)(C)OC(=O)NC1CCN(C(=O)c2cc(Cc3n[nH]c(=O)c4c3NCCC4)ccc2F)CC1 [Example 700, tert-butyl 1-{2-fluoro-5-[(5-oxo-1,2,3,4,5,6-hexahydropyrido[2,3-d]pyridazin-8-yl)methyl]benzoyl}piperidin-4-ylcarbamate]",2.8
8,"O=C(c1cscn1)N1CCN(C(=O)c2cc(Cc3n[nH]c(=O)c4c3NCCC4)ccc2F)CC1 [Example 705, 8-(4-fluoro-3-{[4-(1,3-thiazol-4-ylcarbonyl)piperazin-1-yl]carbonyl}benzyl)-2,3,4,6-tetrahydropyrido[2,3-d]pyridazin-5(1H)-one]",1.4
9,"CN(C(=O)c1cc(Cc2n[nH]c(=O)c3c2NCCC3)ccc1F)C1CCNCC1 [Example 706, 2-fluoro-N-methyl-5-[(5-oxo-1,2,3,4,5,6-hexahydropyrido[2,3-d]pyridazin-8-yl)methyl]-N-piperidin-4-ylbenzamide]",5
10,"O=C(NC1CCC(O)CC1)c1cc(Cc2n[nH]c(=O)c3c2NCCC3)ccc1F (stereo not drawn) [Example 709, 2-fluoro-N-(4-hydroxycyclohexyl)-5-[(5-oxo-1,2,3,4,5,6-hexahydropyrido[2,3-d]pyridazin-8-yl)methyl]benzamide]",53
11,"CN(C(=O)c1cc(Cc2n[nH]c(=O)c3c2NCCC3)ccc1F)C1CCN(C(=O)c2cccnc2)CC1 [Example 710, 2-fluoro-N-methyl-5-[(5-oxo-1,2,3,4,5,6-hexahydropyrido[2,3-d]pyridazin-8-yl)methyl]-N-[1-(pyridin-3-ylcarbonyl)piperidin-4-yl]benzamide]",7
12,"CCN(CCNC(=O)OC(C)(C)C)C(=O)c1cc(Cc2n[nH]c(=O)c3c2CCCC3)ccc1F [Example 711, tert-butyl 2-(ethyl{2-fluoro-5-[(4-oxo-3,4,5,6,7,8-hexahydrophthalazin-1-yl)methyl]benzoyl}amino)ethylcarbamate]",3
13,"CN(C(=O)c1cc(Cc2n[nH]c(=O)c3c2NCCC3)ccc1F)C1CCN(C(=O)c2ccncc2)CC1 [Example 712, 2-fluoro-N-(1-isonicotinoylpiperidin-4-yl)-N-methyl-5-[(5-oxo-1,2,3,4,5,6-hexahydropyrido[2,3-d]pyridazin-8-yl)methyl]benzamide]",4
14,"O=C(NC1CCN(C(=O)c2ccc3[nH]cnc3c2)CC1)c1cc(Cc2n[nH]c(=O)c3c2NCCC3)ccc1F [Example 713, N-[1-(1H-benzimidazol-5-ylcarbonyl)piperidin-4-yl]-2-fluoro-5-[(5-oxo-1,2,3,4,5,6-hexahydropyrido[2,3-d]pyridazin-8-yl)methyl]benzamide]",1.8
15,"O=C(NCCN1CCCC1=O)c1cc(Cc2n[nH]c(=O)c3c2CCCC3)ccc1F [Example 714, 2-fluoro-5-[(4-oxo-3,4,5,6,7,8-hexahydrophthalazin-1-yl)methyl]-N-[2-(2-oxopyrrolidin-1-yl)ethyl]benzamide]",0.8
16,"CN(C(=O)c1cc(Cc2n[nH]c(=O)c3c2NCCC3)ccc1F)C1CCN(C(=O)c2ccco2)CC1 [Example 715, 2-fluoro-N-[1-(2-furoyl)piperidin-4-yl]-N-methyl-5-[(5-oxo-1,2,3,4,5,6-hexahydropyrido[2,3-d]pyridazin-8-yl)methyl]benzamide]",4
17,"CN(C(=O)c1cc(Cc2n[nH]c(=O)c3c2NCCC3)ccc1F)C1CCN(C(=O)[C@@H]2CSCN2)CC1 [Example 716, 2-fluoro-N-methyl-5-[(5-oxo-1,2,3,4,5,6-hexahydropyrido[2,3-d]pyridazin-8-yl)methyl]-N-{1-[(4R)-1,3-thiazolidin-4-ylcarbonyl]piperidin-4-yl}benzamide]",5
18,"CN(C(=O)c1cc(Cc2n[nH]c(=O)c3c2NCCC3)ccc1F)C1CCN(C(=O)c2cscn2)CC1 [Example 717, 2-fluoro-N-methyl-5-[(5-oxo-1,2,3,4,5,6-hexahydropyrido[2,3-d]pyridazin-8-yl)methyl]-N-[1-(1,3-thiazol-4-ylcarbonyl)piperidin-4-yl]benzamide]",4
19,"CN(C(=O)c1cc(Cc2n[nH]c(=O)c3c2NCCC3)ccc1F)C1CCN(C(=O)c2cn[nH]c2)CC1 [Example 718, 2-fluoro-N-methyl-5-[(5-oxo-1,2,3,4,5,6-hexahydropyrido[2,3-d]pyridazin-8-yl)methyl]-N-[1-(1H-pyrazol-4-ylcarbonyl)piperidin-4-yl]benzamide]",2.6

# Now from value to compound:
row,Ki [nM],SMILES
1,1.9,"O=C(c1ccc2nc[nH]c2c1)N1CCCN(C(=O)c2cc(Cc3n[nH]c(=O)c4c3NCCC4)ccc2F)CC1 [Example 686, 8-(3-{[4-(1H-benzimidazol-6-ylcarbonyl)-1,4-diazepan-1-yl]carbonyl}-4-fluorobenzyl)-2,3,4,6-tetrahydropyrido[2,3-d]pyridazin-5(1H)-one]"
2,2.7,"Cc1nc2cc(C(=O)N3CCCN(C(=O)c4cc(Cc5n[nH]c(=O)c6c5NCCC6)ccc4F)CC3)ccc2[nH]1 [Example 689, 8-[4-fluoro-3-({4-[(2-methyl-1H-benzimidazol-5-yl)carbonyl]-1,4-diazepan-1-yl}carbonyl)benzyl]-2,3,4,6-tetrahydropyrido[2,3-d]pyridazin-5(1H)-one]"
3,2.1,"O=C(c1ccc(F)cc1)C1CCN(C(=O)c2cc(Cc3n[nH]c(=O)c4c3NCCC4)ccc2F)CC1 [Example 691, 8-(4-fluoro-3-{[4-(4-fluorobenzoyl)piperidin-1-yl]carbonyl}benzyl)-2,3,4,6-tetrahydropyrido[2,3-d]pyridazin-5(1H)-one]"
4,1.6,"CC1(C)SCNC1C(=O)N1CCN(C(=O)c2cc(Cc3n[nH]c(=O)c4c3NCCC4)ccc2F)CC1 (stereo not drawn) [Example 692, 8-[3-({4-[(5,5-dimethyl-1,3-thiazolidin-4-yl)carbonyl]piperazin-1-yl}carbonyl)-4-fluorobenzyl]-2,3,4,6-tetrahydropyrido[2,3-d]pyridazin-5(1H)-one]"
5,1.7,"O=C(c1ccco1)N1CCCN(C(=O)c2cc(Cc3n[nH]c(=O)c4c3NCCC4)ccc2F)CC1 [Example 694, 8-(4-fluoro-3-{[4-(2-furoyl)-1,4-diazepan-1-yl]carbonyl}benzyl)-2,3,4,6-tetrahydropyrido[2,3-d]pyridazin-5(1H)-one]"
6,2.2,"CN1CCN(C(=O)c2cc(Cc3n[nH]c(=O)c4c3NCCC4)ccc2F)CC1=O [Example 697, 8-{4-fluoro-3-[(4-methyl-3-oxopiperazin-1-yl)carbonyl]benzyl}-2,3,4,6-tetrahydropyrido[2,3-d]pyridazin-5(1H)-one]"
7,11,"CN(C(=O)c1cc(Cc2n[nH]c(=O)c3c2NCCC3)ccc1F)C1CCN(C(=O)OC(C)(C)C)CC1 [Example 698, tert-butyl 4-[{2-fluoro-5-[(5-oxo-1,2,3,4,5,6-hexahydropyrido[2,3-d]pyridazin-8-yl)methyl]benzoyl}(methyl)amino]piperidine-1-carboxylate]"
8,2.3,"O=C(c1cc(Cc2n[nH]c(=O)c3c2NCCC3)ccc1F)N1CCCN(C(=O)[C@@H]2CSCN2)CC1 [Example 701, 8-[4-fluoro-3-({4-[(4R)-1,3-thiazolidin-4-ylcarbonyl]-1,4-diazepan-1-yl}carbonyl)benzyl]-2,3,4,6-tetrahydropyrido[2,3-d]pyridazin-5(1H)-one]"
9,2.1,"O=C(c1cc[nH]n1)N1CCCN(C(=O)c2cc(Cc3n[nH]c(=O)c4c3NCCC4)ccc2F)CC1 [Example 702, 8-(4-fluoro-3-{[4-(1H-pyrazol-3-ylcarbonyl)-1,4-diazepan-1-yl]carbonyl}benzyl)-2,3,4,6-tetrahydropyrido[2,3-d]pyridazin-5(1H)-one]"
10,2.3,"O=C(c1cscn1)N1CCCN(C(=O)c2cc(Cc3n[nH]c(=O)c4c3NCCC4)ccc2F)CC1 [Example 703, 8-(4-fluoro-3-{[4-(1,3-thiazol-4-ylcarbonyl)-1,4-diazepan-1-yl]carbonyl}benzyl)-2,3,4,6-tetrahydropyrido[2,3-d]pyridazin-5(1H)-one]"
11,0.6,"O=C(c1cc[nH]n1)N1CCN(C(=O)c2cc(Cc3n[nH]c(=O)c4c3NCCC4)ccc2F)CC1 [Example 704, 8-(4-fluoro-3-{[4-(1H-pyrazol-3-ylcarbonyl)piperazin-1-yl]carbonyl}benzyl)-2,3,4,6-tetrahydropyrido[2,3-d]pyridazin-5(1H)-one]"
